Holding throughout (assay type): cell-based
The target in experiment [1] is T1, wild-type Androgen Receptor (AR-wt) (Homo sapiens, UniProt P10275).
T1 construct: expressed in transfected cells; host or cells: LNCaP (LNCaP AR (cs))
T1 sequence (P10275 1-920): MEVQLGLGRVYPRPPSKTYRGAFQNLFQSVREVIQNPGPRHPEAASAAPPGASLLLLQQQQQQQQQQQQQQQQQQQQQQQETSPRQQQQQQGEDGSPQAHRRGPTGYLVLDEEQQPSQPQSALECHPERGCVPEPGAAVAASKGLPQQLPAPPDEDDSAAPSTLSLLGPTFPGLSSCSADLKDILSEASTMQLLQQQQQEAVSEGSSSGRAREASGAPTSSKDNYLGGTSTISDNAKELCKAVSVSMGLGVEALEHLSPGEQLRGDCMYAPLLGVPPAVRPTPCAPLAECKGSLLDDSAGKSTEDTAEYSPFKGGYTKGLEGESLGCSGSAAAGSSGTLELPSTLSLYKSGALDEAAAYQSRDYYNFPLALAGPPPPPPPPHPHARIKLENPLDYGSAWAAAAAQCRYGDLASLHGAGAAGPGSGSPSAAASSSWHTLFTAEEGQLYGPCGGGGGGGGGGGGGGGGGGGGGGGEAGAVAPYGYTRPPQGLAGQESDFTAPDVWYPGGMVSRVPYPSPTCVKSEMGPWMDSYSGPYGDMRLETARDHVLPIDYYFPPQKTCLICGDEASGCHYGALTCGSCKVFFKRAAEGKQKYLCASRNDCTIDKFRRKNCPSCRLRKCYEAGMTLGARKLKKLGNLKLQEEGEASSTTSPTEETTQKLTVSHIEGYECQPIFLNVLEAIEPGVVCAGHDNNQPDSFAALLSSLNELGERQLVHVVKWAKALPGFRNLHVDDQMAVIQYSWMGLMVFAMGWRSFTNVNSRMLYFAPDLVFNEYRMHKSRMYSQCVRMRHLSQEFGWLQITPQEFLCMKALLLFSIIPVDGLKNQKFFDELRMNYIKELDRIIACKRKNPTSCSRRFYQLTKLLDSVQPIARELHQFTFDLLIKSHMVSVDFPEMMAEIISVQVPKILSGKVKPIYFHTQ
The experiment is described as follows: LNCaP-AR-wt AG reporter assay (ARE firefly luciferase, agonist mode). Particulars: for Emax: read-out: LNCaP-AR-wt AG MAX % Stim. A digest of the protocol:
(§1)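 LNCaP cells stably expressing wild-type or F876L AR (puromycin-selected pooled populations) were cultured in charcoal-stripped serum medium. In antagonist mode, agonist challenge was 400 pM for wild-type and 600 pM for F876L.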
For orientation: A reporter such as luciferase makes a cellular process visible.

Experiment [2] deals with T2, F876L mutant Androgen Receptor (AR-F876L) (Homo sapiens, UniProt P10275, F877L).
T2 construct: expressed in transfected cells; host or cells: LNCaP (LNCaP F876L)
T2 sequence (P10275 1-920 F877L): T1 sequence (P10275 1-920) with F877L
As to the kind of experiment: LNCaP-AR-F876L AG reporter assay (ARE firefly luciferase, agonist mode). The conditions noted are these: for Emax: read-out: LNCaP-AR-F876L AG MAX % Stim. A digest of the protocol: as §1

For experiment [3], the target named is T1, wild-type Androgen Receptor (AR-wt). The experiment is described as follows: LNCaP-AR-wt ANT reporter assay (ARE firefly luciferase, antagonist mode). Particulars: for IC50: antagonist mode, 400 pM R-1881 challenge, −Log10(IC50 [Molar]), read-out: LNCaP-AR-wt ANT pIC50 (converted); for Emax: read-out: LNCaP-AR-wt ANT MAX % Inh. The essentials:
(§2)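 Cells: stable LNCaP pools, AR-wt or AR-F876L, in charcoal-stripped serum. Agonist challenge for antagonist mode was 400 pM (WT) and 600 pM (F876L). Luminescence was measured after 20-24 h incubation.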

For experiment [4], the target named is T2, F876L mutant Androgen Receptor (AR-F876L). As to the kind of experiment: LNCaP-AR-F876L ANT reporter assay (ARE firefly luciferase, antagonist mode). Particulars: for Emax: read-out: LNCaP-AR-F876L ANT MAX % Inh; for IC50: read-out: LNCaP-AR-F876L ANT pIC50 (converted). The essentials: as §2
The mark [5] stands for this setting: agonist mode, −Log10(EC50 [Molar]), read-out: LNCaP-AR-wt AG pEC50 (converted).
Setting [6] is: maximum % stimulation (agonist response) over tested concentration range.
The mark [7] stands for this setting: agonist mode, −Log10(EC50 [Molar]), read-out: LNCaP-AR-F876L AG pEC50 (converted).
Where [8] appears, read: maximum % inhibition of R1881 control response over tested concentration range.

Each structure is given as a SMILES string. Changes are numbered by the printed parent chain. Like-named read-outs stand apart in the source and are kept apart here.

As to `N#Cc1ncc(N2C(=O)C3(CCC3)N(c3cccc(F)c3)C2=S)cc1C(F)(F)F` [Cpd 90, 5-[8-(3-fluorophenyl)-5-oxo-7-thioxo-6,8-diazaspiro[3.4]octan-6-yl]-3-(trifluoromethyl)pyridine-2-carbonitrile], the EC50 in experiment [1] (setting [5]) and in experiment [2] (setting [7]) was greater than 15.1 µM each time. The Emax in experiment [1] (setting [6]) was 0.5%; in experiment [2] (setting [6]), 1.4%; in experiment [3] (setting [8]), 100%; in experiment [4] (setting [8]) it was 98.6%. The IC50 is 0.513 µM in experiment [3] and 0.631 µM in experiment [4].

Regarding `CN1CCC(Oc2ccc(N3C(=S)N(c4cnc(C#N)c(C(F)(F)F)c4)C(=O)C3(C)C)cc2)CC1` [Cpd 19, 5-[4,4-dimethyl-3-[4-[(1-methyl-4-piperidyl)oxy]phenyl]-5-oxo-2-thioxo-imidazolidin-1-yl]-3-(trifluoromethyl)pyridine-2-carbonitrile], the EC50 in experiment [1] and in experiment [2] was greater than 15.1 µM throughout. Further, the Emax in experiment [1] was determined as 0.3%; in experiment [2], 0.2%; in experiment [3], 99.6%; in experiment [4], 98.1%. The IC50 in experiment [3] is 0.871 µM; in experiment [4], 0.525 µM.

With `CNS(=O)(=O)c1ccc(N2C(=S)N(c3cnc(C#N)c(C(F)(F)F)c3)C(=O)C23CCC3)cc1` [Cpd 25, 4-[6-[6-cyano-5-(trifluoromethyl)-3-pyridyl]-5-oxo-7-thioxo-6,8-diazaspiro[3.4]octan-8-yl]-N-methyl-benzenesulfonamide], the EC50 in experiment [1] (setting [5]) and in experiment [2] (setting [7]) was greater than 15.1 µM each time. The Emax in experiment [1] (setting [6]) stood at 1.5%; in experiment [2] (setting [6]) it was 0.2%; in experiment [3] (setting [8]), 98%; in experiment [4] (setting [8]), 99.7%. In addition, the values for the IC50 in experiment [3] and in experiment [4] were 1 µM and 0.525 µM, respectively.

For the compound `N#Cc1ncc(N2C(=O)C3(CCC3)N(c3cccc(F)c3F)C2=S)cc1C(F)(F)F` [Cpd 106, 5-[8-(2,3-difluorophenyl)-5-oxo-7-thioxo-6,8-diazaspiro[3.4]octan-6-yl]-3-(trifluoromethyl)pyridine-2-carbonitrile], the EC50 in experiment [1] (setting [5]) and in experiment [2] (setting [7]) was greater than 15.1 µM in each case. In addition, the Emax is 1.8% in experiment [1] (setting [6]), 2.4% in experiment [2] (setting [6]), 101% in experiment [3] (setting [8]) and 95.9% in experiment [4] (setting [8]). For the same compound, the IC50 is 0.617 µM in experiment [3] and 0.631 µM in experiment [4].

In the case of `N#Cc1ncc(N2C(=O)C3(CCC3)N(c3ccc(C(=O)NCc4ccccn4)c(F)c3)C2=S)cc1C(F)(F)F` [Cpd 44, 4-[6-[6-cyano-5-(trifluoromethyl)-3-pyridyl]-5-oxo-7-thioxo-6,8-diazaspiro[3.4]octan-8-yl]-2-fluoro-N-(2-pyridylmethyl)benzamide], the EC50 in experiment [1] and in experiment [2] was greater than 15.1 µM in each case. For the same compound, the Emax in experiment [1] is -0.2%; in experiment [2] it was 0%; in experiment [3], 103%; in experiment [4], 101%. For the same compound, the IC50 in experiment [3] is 0.195 µM; in experiment [4] it was 0.178 µM.

Consider `Cc1cc(N2C(=O)C3(CCC3)N(c3ccc(C(=O)NCC4CCOCC4)c(F)c3)C2=S)cnc1C#N` [Cpd 3, 4-[6-(6-cyano-5-methyl-3-pyridyl)-5-oxo-7-thioxo-6,8-diazaspiro[3.4]octan-8-yl]-2-fluoro-N-(tetrahydropyran-4-ylmethyl)benzamide], for which the EC50 in experiment [1] (setting [5]) and in experiment [2] (setting [7]) was greater than 15.1 µM throughout. In addition, the Emax in experiment [1] (setting [6]) is 0.3%; in experiment [2] (setting [6]), -0.3%; in experiment [3] (setting [8]) it was 99.6%; in experiment [4] (setting [8]), 98.9%. The IC50 was 1.35 µM in experiment [3] and 0.324 µM in experiment [4].

As to `N#Cc1ncc(N2C(=O)C3(CCC3)N(c3ccc(OCCN4CCCC4)c(F)c3)C2=S)cc1C(F)(F)F` [Cpd 66, 5-[8-[3-fluoro-4-(2-pyrrolidin-1-ylethoxy)phenyl]-5-oxo-7-thioxo-6,8-diazaspiro[3.4]octan-6-yl]-3-(trifluoromethyl)pyridine-2-carbonitrile], the EC50 in experiment [1] (setting [5]) and in experiment [2] (setting [7]) was greater than 15.1 µM each time. For the same compound, the Emax in experiment [1] (setting [6]) was 0.6%; in experiment [2] (setting [6]), 0.1%; in experiment [3] (setting [8]), 98.9%; in experiment [4] (setting [8]), 96.2%. The IC50 in experiment [3] is 1.15 µM; in experiment [4], 0.603 µM.

As to `N#Cc1ncc(N2C(=O)C3(CCC3)N(c3ccc(OCCN4CCCCC4)cc3F)C2=S)cc1C(F)(F)F` [Cpd 91, 5-[8-[2-fluoro-4-[2-(1-piperidyl)ethoxy]phenyl]-5-oxo-7-thioxo-6,8-diazaspiro[3.4]octan-6-yl]-3-(trifluoromethyl)pyridine-2-carbonitrile], the EC50 in experiment [1] (setting [5]) and in experiment [2] (setting [7]) was greater than 15.1 µM in each case. Further, the Emax was 1.1% in experiment [1] (setting [6]), 1.4% in experiment [2] (setting [6]), 98.5% in experiment [3] (setting [8]) and 98.6% in experiment [4] (setting [8]). Further, the IC50 in experiment [3] is 0.537 µM; in experiment [4] it was 0.302 µM.

Take `CNC(=O)c1ccc(N2C(=S)N(c3cnc(C#N)c(C(F)F)c3)C(=O)C23CCC3)cc1F` [Cpd 39, 4-[6-[6-cyano-5-(difluoromethyl)-3-pyridyl]-5-oxo-7-thioxo-6,8-diazaspiro[3.4]octan-8-yl]-2-fluoro-N-methyl-benzamide]: the EC50 in experiment [1] (setting [5]) and in experiment [2] (setting [7]) was greater than 15.1 µM throughout. For the same compound, the Emax in experiment [1] (setting [6]) is 0.2%; in experiment [2] (setting [6]), 0.3%; in experiment [3] (setting [8]), 97.2%; in experiment [4] (setting [8]) it was 94.4%. The IC50 in experiment [3] was 1.82 µM; in experiment [4], 1.55 µM.

Turning to `N#Cc1ncc(N2C(=O)C3(CCC3)N(c3ccc4ccccc4c3)C2=S)cc1C(F)(F)F` [Cpd 18, 5-[8-(2-naphthyl)-5-oxo-7-thioxo-6,8-diazaspiro[3.4]octan-6-yl]-3-(trifluoromethyl)pyridine-2-carbonitrile], the EC50 in experiment [1] and in experiment [2] was greater than 15.1 µM in each case. Also, the Emax is -0.2% in experiment [1], 0% in experiment [2], 101% in experiment [3] and 101% in experiment [4]. In addition, the values for the IC50 in experiment [3] and in experiment [4] were 0.204 µM and 0.191 µM, respectively.

For the origin of these results see patent US20180008587A1, “THIOHYDANTOIN ANDROGEN RECEPTOR ANTAGONISTS FOR THE TREATMENT OF CANCER” (Jaressen Pharmaceutica NV, priority 2016, published 2018).
